Experimental data reported in patent publication US10857128B2, “Methods and compositions for treating inflammatory diseases” (Helmholtz Zentrum München Deutsches Forschungszentrum für …, priority 2017, dated 2020).

Legend:
[1] = test system: human LPS treated DCs; assay: Cytokine secretion of human DCs (multiplex assay); type: cell-based; conditions: for IFN-g / IL-5 / IL-10 / IL-12: 200 μl supernatant or amino acid 10 μM, 14 h
Procedure: Peripheral blood mononuclear cells (PBMC) were isolated from heparinized whole blood by density gradient centrifugation (2000 rpm, 22° C., 20 min) (Biocoll, Biochrom AG, Berlin, Germany). […] Purity and viability of DCs was assessed by flow cytometry (FIG. 9A-C).
[…] For probiotic supernatants, blank CDM1 was used as medium control. […] IL-5, IFN-gamma, IL-12, and IL-10, were quantified by a multiplex assay (Milliplex Human Cytokine Immunoassay, Millipore GMbH Schalbach, Germany) as described by the manufacturer.

[2] = test system: murine naïve CD4+ T cells; assay: In vitro differentiation of murine primary T cells (Th1, Th2, Treg); type: cell-based, Balb/c mice; conditions: 10 or 50 μM D-Trp
From the text: Differentiation of murine primary T cells. Murine spleens from female Balb/c mice were filtered through a 40 μm filter to generate single cell suspensions. These were then subjected to red blood cell lysis by using RBC lysis buffer (Biolegend, San Diego, USA) according to the manufacturer's recommendations. Afterwards, naïve CD4^+ T cells were isolated via magnetic-activated cell sorting (MACS) using the naïve CD4^+ T cell isolation kit (Miltenyi Biotec, Bergisch-Gladbach, Germany). The resulting naïve CD4^+ T cells were cultured in 96 wells plates (1×10^6 cells/ml Medium) in TexMACS medium supplemented with 10% FCS, 0.01 mM 2-Mercaptoethanol, rIL-2 (10 ng/ml) as well as MACSiBead particles with anti-CD3 and anti-CD28 (1×10^6 beads per 1×10^6 cells) (all Miltenyi Biotec). Cells were differentiated over a period of 6 days towards Th1 (10 ng/ml IL12 and 10 μg/ml anti-IL4, derived from Cytobox Th1), Th2 (10 ng/ml II4 and 10 μg/ml anti-Ifnγ, derived from Cytobox Th2) and Treg (5 ng/ml) (all Miltenyi Biotec). Differentiation of cells was assessed by flow cytometry (see FIG. 15 for gating strategy), enhanced cytometric bead array (CBA) from cell culture supernatants and qRT-PCR. Prior to CBA and flow cytometry, cells were stimulated with monensin (0.7 μL/mL, BD Golgi Stop, BD Bioscience, Heidelberg, Germany) for 4 h at 37° C. in the prescence of lonomycin (500 ng/ml, Sigma Aldrich, Missouri, USA) and PMA (5 ng/ml, Sigma Aldrich, Missouri, USA).
Assessment of cytokines by cytometric bead array. Levels of II4, II5 and II13 were analysed in BALF and cell culture supernatants using an enhanced cytometric bead array (eCBA, Fex Set Kits, BD Biosciences, Franklin Lakes, N.J., USA) according to the manufacturer's guidelines.
Gene expression analysis. Total RNA was isolated from homogenized lung tissue or cell culture using the miRNeasy Micro Kit according to manufacturer's instructions (Qiagen, Venlo, Netherlands). Concentrations were determined using a NanoDrop® ND-1000 (NanoDrop Technologies, Erlangen, Germany) spectrophotometer. mRNA was transcribed to cDNA with the QuantiTect Rev. Transcription kit (Qiagen, Venlo, Netherlands) and PCR for specific genes was performed on a LightCycler 480 platform with Light Cycler 480 SYBR Green I Mastermix (Roche, Mannheim, Germany).

N[C@H](Cc1c[nH]c2ccccc12)C(=O)O [D-tryptophan]
IL-10 in DC cultures ([1]; highly enriched DCs): strongly induced
LPS-induced IFN-g, IL-12 and IL-5 in DC cultures ([1]; highly enriched DCs): lowered
Ratio IL-5/IFN-g ([1]; with LPS 0.1 μg/ml): 0.018
Ratio IL-10/IL-12 ([1]; with LPS 0.1 μg/ml): 0.232
IFN-g ([1]; with LPS 0.1 μg/ml): 1129.50 pg/mL
IL-5 ([1]; with LPS 0.1 μg/ml): 20.60 pg/mL
IL-10 ([1]; with LPS 0.1 μg/ml): 202.50 pg/mL
IL-12 ([1]; with LPS 0.1 μg/ml): 871.90 pg/mL
Ratio IL-5/IFN-g ([1]; without LPS): 0.470
Ratio IL-10/IL-12 ([1]; without LPS): 0.690
IFN-g ([1]; without LPS): 21.90 pg/mL
IL-5 ([1]; without LPS): 10.30 pg/mL
IL-10 ([1]; without LPS): 56.90 pg/mL
IL-12 ([1]; without LPS): 82.50 pg/mL
Th1 differentiation ([2]; 6 days): remained unaffected
Th2 cell differentiation ([2]; 6 days): reduced
lfng expression ([2]; Th1 conditions): remained unaffected
II-4, Gata3 expression and II-13 secretion ([2]; Th2 conditions): reduced
Foxp3 expression of Treg cells on mRNA and protein level ([2]; Treg conditions): increased
